Assay results published in patent publication US20220411439A1, “POLYMORPHS OF A MACROCYCLIC KINASE INHIBITOR” (TURNING POINT THERAPEUTICS, INC., priority 2019, published 2022).
Read-outs that look alike come from different tables or passages of the source.

Molecular target: T1, Ba/F3 KIF5B-RET (Homo sapiens, UniProt P07949, cells depend on it, form not given)
T1 construct: IC50 (nM); other: Experiment 1; other: Experiment 2; fused on or other part: P33176 (Kinesin-1 heavy chain)
Experiment: Compound I anti-cell proliferation comparison (FIG. 5A, 5B)
Type: cell-based
Details: for GI50: read-out: IC50 (the source's name)
Description: The KIF5B-RET gene was synthesized at GenScript and cloned into pCDH-CMV-MCS-EF1-Puro plasmid (System Biosciences, Inc). KIF5B-RET point mutation V804M and G810C were generated at GenScript by PCR and confirmed by sequencing. Ba/F3-KIF5B-RET wild type and mutant were generated by transducing Ba/F3 cells with lentivirus containing KIF5B-RET wide type or mutant. Stable cell lines were selected by puromycin treatment, followed by IL-3 withdrawal. Briefly, 5×10^6 Ba/F3 cells were transduced with lentivirus supernatant in the presence of 8 μg/mL protamine sulfate. The transduced cells were subsequently selected with 1 μg/mL puromycin in the presence of IL3-containing medium RPMI1640, plus 10% FBS. After 10-12 days of selection, the surviving cells were further selected for […] independent growth.
Two thousand cells per well were seeded in 384 well white plate for 24 hrs, and then treated with compounds for 72 hours (37° C., 5% CO2). Cell proliferation was measured using CellTiter-Glo luciferase-based ATP detection assay (Promega) following the manufactures's protocol. IC50 determinations were performed using GraphPad Prism software (GraphPad, Inc., San Diego, Calif.).

T1 sequence (P07949 whole entry G810C, form open, the tested form may be a part): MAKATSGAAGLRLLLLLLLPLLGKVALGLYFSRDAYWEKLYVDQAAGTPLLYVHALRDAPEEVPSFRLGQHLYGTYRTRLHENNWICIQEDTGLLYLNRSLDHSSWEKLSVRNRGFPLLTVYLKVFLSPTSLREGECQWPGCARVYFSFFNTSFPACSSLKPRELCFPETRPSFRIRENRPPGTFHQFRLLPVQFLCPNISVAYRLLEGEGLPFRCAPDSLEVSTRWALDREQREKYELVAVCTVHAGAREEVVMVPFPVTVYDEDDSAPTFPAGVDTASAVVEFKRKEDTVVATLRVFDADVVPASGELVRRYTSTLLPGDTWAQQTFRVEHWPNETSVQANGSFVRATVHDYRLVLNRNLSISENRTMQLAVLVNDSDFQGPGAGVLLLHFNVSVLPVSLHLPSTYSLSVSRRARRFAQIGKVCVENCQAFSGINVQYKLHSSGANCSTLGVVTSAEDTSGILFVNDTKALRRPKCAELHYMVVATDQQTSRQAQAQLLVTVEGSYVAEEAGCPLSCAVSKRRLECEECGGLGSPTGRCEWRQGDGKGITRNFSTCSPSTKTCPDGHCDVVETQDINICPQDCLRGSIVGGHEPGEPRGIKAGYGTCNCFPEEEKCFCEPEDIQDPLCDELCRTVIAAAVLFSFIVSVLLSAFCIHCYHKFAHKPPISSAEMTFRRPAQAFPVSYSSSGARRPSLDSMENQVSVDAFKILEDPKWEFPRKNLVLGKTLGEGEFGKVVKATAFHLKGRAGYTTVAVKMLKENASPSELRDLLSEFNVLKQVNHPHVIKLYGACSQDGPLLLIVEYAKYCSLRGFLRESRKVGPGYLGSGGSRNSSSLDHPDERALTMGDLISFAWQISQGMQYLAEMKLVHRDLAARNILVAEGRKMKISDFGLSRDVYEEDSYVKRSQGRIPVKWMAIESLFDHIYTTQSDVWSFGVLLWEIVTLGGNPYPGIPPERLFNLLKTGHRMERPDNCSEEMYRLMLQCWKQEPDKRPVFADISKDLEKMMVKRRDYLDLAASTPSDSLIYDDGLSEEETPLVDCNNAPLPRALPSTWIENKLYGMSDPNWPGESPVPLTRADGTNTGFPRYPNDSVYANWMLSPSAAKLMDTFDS

IC75 (Experiment 1): 1021 nM
IC90 (Experiment 1): 3450 nM
GI50 (Experiment 1): 301 nM
IC75 (Experiment 2): 791.4 nM
IC90 (Experiment 2): 2370 nM
GI50 (Experiment 2): 364 nM
Compound: COc1ccc(CN2C3CC2CN(c2ccc(-c4cc(OCC(C)(C)O)cn5ncc(C#N)c45)cn2)C3)cn1 [LOXO-292]
